In PubChem BioAssay (NCI):
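Step 1: Grow cells in 96-well plates. Step 2: Expose to compound for 48 hours at 5 concentrations. Step 3: Interpolate endpoints linearly; if unreached, use highest concentration. TGI denotes the concentration required for complete inhibition of growth.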

Tests used:
Assay in all cases: growth of human tumour cells (NCI), 48 h
OVCAR-8 ovarian = tested on: OVCAR-8 ovarian
HCC-2998 colon = tested on: HCC-2998 colon
KM20L2 colon = tested on: KM20L2 colon
M14 melanoma = tested on: M14 melanoma
CAKI-1 renal = tested on: CAKI-1 renal
HOP-62 NSCLC = tested on: HOP-62 NSCLC
COLO 205 colon = tested on: COLO 205 colon
OVCAR-3 ovarian = tested on: OVCAR-3 ovarian
OVCAR-4 ovarian = tested on: OVCAR-4 ovarian
NCI-H226 lung = tested on: NCI-H226 lung
UACC-62 melanoma = tested on: UACC-62 melanoma
KM12 colon = tested on: KM12 colon
MALME-3M melanoma = tested on: MALME-3M melanoma
EKVX NSCLC = tested on: EKVX NSCLC
TK-10 renal = tested on: TK-10 renal
U251 CNS = tested on: U251 CNS
XF 498 CNS = tested on: XF 498 CNS
HOP-18 NSCLC = tested on: HOP-18 NSCLC
RXF-631 renal = tested on: RXF-631 renal
NCI-H23 lung = tested on: NCI-H23 lung
ACHN renal = tested on: ACHN renal
MOLT-4 leukemia = tested on: MOLT-4 leukemia
HL-60(TB) leukemia = tested on: HL-60(TB) leukemia
LXFL 529 NSCLC = tested on: LXFL 529 NSCLC
SK-MEL-5 melanoma = tested on: SK-MEL-5 melanoma
SN12C renal = tested on: SN12C renal
IGROV1 ovarian = tested on: IGROV1 ovarian
HCT-116 colon = tested on: HCT-116 colon
SNB-75 CNS = tested on: SNB-75 CNS
SK-MEL-2 melanoma = tested on: SK-MEL-2 melanoma
SNB-78 CNS = tested on: SNB-78 CNS
HT29 colon = tested on: HT29 colon
SNB-19 CNS = tested on: SNB-19 CNS
SW-620 colon = tested on: SW-620 colon
HCT-15 colon = tested on: HCT-15 colon
RXF 393 renal = tested on: RXF 393 renal
SK-OV-3 ovarian = tested on: SK-OV-3 ovarian
NCI-H522 lung = tested on: NCI-H522 lung
A498 renal = tested on: A498 renal
UO-31 renal = tested on: UO-31 renal
M19-MEL melanoma = tested on: M19-MEL melanoma
SF-295 CNS = tested on: SF-295 CNS
CCRF-CEM leukemia = tested on: CCRF-CEM leukemia
SF-268 CNS = tested on: SF-268 CNS
HOP-92 NSCLC = tested on: HOP-92 NSCLC
786-0 renal = tested on: 786-0 renal
SK-MEL-28 melanoma = tested on: SK-MEL-28 melanoma
A549 NSCLC = tested on: A549 NSCLC
DLD-1 colon = tested on: DLD-1 colon
UACC-257 melanoma = tested on: UACC-257 melanoma
DMS 114 small cell lung = tested on: DMS 114 small cell lung
DMS 273 small cell lung = tested on: DMS 273 small cell lung
NCI-H460 lung = tested on: NCI-H460 lung
K-562 leukemia = tested on: K-562 leukemia
RPMI-8226 leukemia = tested on: RPMI-8226 leukemia
SF-539 CNS = tested on: SF-539 CNS
OVCAR-5 ovarian = tested on: OVCAR-5 ovarian

Which results are given for `O=C1NC(=O)C(=Nc2cccc3c(=O)[nH][nH]c(=O)c23)C(c2nc3ccccc3s2)C1=O` (stereo not drawn)?
TGI (OVCAR-8 ovarian): > 100 µM; TGI (HCC-2998 colon): > 100 µM; TGI (KM20L2 colon): > 100 µM; TGI (M14 melanoma): > 100 µM; TGI (CAKI-1 renal): > 100 µM; TGI (HOP-62 NSCLC): > 100 µM; TGI (COLO 205 colon): > 100 µM; TGI (OVCAR-3 ovarian): > 100 µM; TGI (OVCAR-4 ovarian): > 100 µM; TGI (NCI-H226 lung): > 100 µM; TGI (UACC-62 melanoma): > 100 µM; TGI (KM12 colon): > 100 µM; TGI (MALME-3M melanoma): > 100 µM; TGI (EKVX NSCLC): > 100 µM; TGI (TK-10 renal): > 100 µM; TGI (U251 CNS): > 100 µM; TGI (XF 498 CNS): > 100 µM; TGI (HOP-18 NSCLC): > 100 µM; TGI (RXF-631 renal): > 100 µM; TGI (NCI-H23 lung): > 100 µM; TGI (ACHN renal): > 100 µM; TGI (MOLT-4 leukemia): > 100 µM; TGI (HL-60(TB) leukemia): > 100 µM; TGI (LXFL 529 NSCLC): > 100 µM; TGI (SK-MEL-5 melanoma): > 100 µM; TGI (SN12C renal): > 100 µM; TGI (IGROV1 ovarian): > 100 µM; TGI (HCT-116 colon): > 100 µM; TGI (SNB-75 CNS): > 100 µM; TGI (SK-MEL-2 melanoma): > 100 µM; TGI (SNB-78 CNS): > 100 µM; TGI (HT29 colon): > 100 µM; TGI (SNB-19 CNS): > 100 µM; TGI (SW-620 colon): > 100 µM; TGI (HCT-15 colon): > 100 µM; TGI (RXF 393 renal): > 100 µM; TGI (SK-OV-3 ovarian): > 100 µM; TGI (NCI-H522 lung): > 100 µM; TGI (A498 renal): > 100 µM; TGI (UO-31 renal): > 100 µM; TGI (M19-MEL melanoma): > 100 µM; TGI (SF-295 CNS): > 100 µM; TGI (CCRF-CEM leukemia): > 100 µM; TGI (SF-268 CNS): > 100 µM; TGI (HOP-92 NSCLC): > 100 µM; TGI (786-0 renal): > 100 µM; TGI (SK-MEL-28 melanoma): > 100 µM; TGI (A549 NSCLC): > 100 µM; TGI (DLD-1 colon): > 100 µM; TGI (UACC-257 melanoma): > 100 µM; TGI (DMS 114 small cell lung): > 100 µM; TGI (DMS 273 small cell lung): > 100 µM; TGI (NCI-H460 lung): > 100 µM

How did the TGI (OVCAR-8 ovarian) turn out when `O=C1c2ccccc2C(=O)c2c(O)c(NCCCNCCO)cc(O)c21` was run?
Its TGI is 23.7 µM.

What about the TGI (HCC-2998 colon) of the same molecule?
Its TGI is 17 µM.

And the TGI (M14 melanoma)?
The TGI was 36.6 µM.

And the TGI (CAKI-1 renal)?
Its TGI is 22.4 µM.

What about the TGI (HOP-62 NSCLC) of the same molecule?
The TGI was 15.4 µM.

What about the TGI (COLO 205 colon) of the same molecule?
The TGI was 20.8 µM.

What about the TGI (OVCAR-3 ovarian) of the same molecule?
Its TGI is 26.6 µM.

And the TGI (OVCAR-4 ovarian)?
Its TGI is 36.4 µM.

And the TGI (NCI-H226 lung)?
The TGI was 22 µM.

And the TGI (UACC-62 melanoma)?
The TGI was 36.5 µM.

And the TGI (KM12 colon)?
The TGI was 21 µM.

And the TGI (MALME-3M melanoma)?
Its TGI is 31.2 µM.

What about the TGI (EKVX NSCLC) of the same molecule?
Its TGI is 28.3 µM.

And the TGI (TK-10 renal)?
Its TGI is 22.1 µM.

And the TGI (U251 CNS)?
Its TGI is 21.1 µM.

And the TGI (XF 498 CNS)?
Its TGI is 32.7 µM.

What about the TGI (HOP-18 NSCLC) of the same molecule?
The TGI was 17.5 µM.

What about the TGI (RXF-631 renal) of the same molecule?
Its TGI is 25 µM.

What about the TGI (NCI-H23 lung) of the same molecule?
Its TGI is 24.6 µM.

What about the TGI (ACHN renal) of the same molecule?
Its TGI is 15.9 µM.

What about the TGI (MOLT-4 leukemia) of the same molecule?
Its TGI is 14 µM.

And the TGI (HL-60(TB) leukemia)?
Its TGI is 19.7 µM.

What about the TGI (LXFL 529 NSCLC) of the same molecule?
The TGI was 29.8 µM.

And the TGI (SN12C renal)?
Its TGI is 25.8 µM.

What about the TGI (K-562 leukemia) of the same molecule?
The TGI was 3.5 µM.

And the TGI (IGROV1 ovarian)?
Its TGI is 28.8 µM.

And the TGI (SNB-75 CNS)?
The TGI was 26.8 µM.

And the TGI (RPMI-8226 leukemia)?
Its TGI is 25.5 µM.

And the TGI (SK-MEL-2 melanoma)?
Its TGI is 33 µM.

And the TGI (SNB-78 CNS)?
Its TGI is 39.8 µM.

What about the TGI (HT29 colon) of the same molecule?
The TGI was 18.7 µM.

And the TGI (SW-620 colon)?
Its TGI is 18.4 µM.

And the TGI (HCT-15 colon)?
The TGI was 24.6 µM.

What about the TGI (SK-OV-3 ovarian) of the same molecule?
The TGI was 26.1 µM.

What about the TGI (A498 renal) of the same molecule?
Its TGI is 33.1 µM.

What about the TGI (UO-31 renal) of the same molecule?
Its TGI is 19.5 µM.

What about the TGI (M19-MEL melanoma) of the same molecule?
The TGI was 27.4 µM.

And the TGI (SF-295 CNS)?
Its TGI is 23.1 µM.

What about the TGI (CCRF-CEM leukemia) of the same molecule?
Its TGI is 15.5 µM.

And the TGI (SF-268 CNS)?
Its TGI is 23.1 µM.

What about the TGI (HOP-92 NSCLC) of the same molecule?
Its TGI is 31.7 µM.

What about the TGI (786-0 renal) of the same molecule?
The TGI was 23 µM.

And the TGI (SK-MEL-28 melanoma)?
Its TGI is 30.4 µM.

And the TGI (A549 NSCLC)?
Its TGI is 23.7 µM.

What about the TGI (SF-539 CNS) of the same molecule?
Its TGI is 22.2 µM.

What about the TGI (DLD-1 colon) of the same molecule?
The TGI was 19.8 µM.

And the TGI (DMS 114 small cell lung)?
The TGI was 26.2 µM.

And the TGI (OVCAR-5 ovarian)?
Its TGI is 24.6 µM.

And the TGI (DMS 273 small cell lung)?
The TGI was 22.7 µM.

What about the TGI (NCI-H460 lung) of the same molecule?
Its TGI is 17.8 µM.
